Each block holds one molecule with its values, some of them ahead of it.
Assays:
[1] = Aqueous solubility of the compound at pH 3.5; type: physicochemical; settings: aqueous medium
[2] = Lipophilicity, log D of the compound at pH 7.4; type: physicochemical; settings: buffer
[3] = Chemical stability of the compound under neutral conditions; type: physicochemical
[4] = biological target: Gamma-secretase; assay: Modulation of gamma-secretase-mediated cleavage of human APP Swedish and London mutation expressed in HEK293 cells assessed as inhibition of amyloid beta42 production after 5 hrs by sandwich immunoassay; type: cell-based
[5] = Chemical stability of the compound in aqueous 0.1 N HCl assessed as decomposition to corresponding acetophenone after 3 hrs; type: physicochemical; settings: buffer
[6] = biological target: Gamma-secretase; assay: Modulation of gamma-secretase-mediated cleavage of human APP Swedish and London mutation expressed in HEK293 cells assessed as inhibition of amyloid beta40 production after 5 hrs by sandwich immunoassay; type: cell-based
[7] = tested on: Rattus norvegicus; assay: Antialzheimer activity in po dosed CD rat assessed as reduction in amyloid beta42 level in cortex after 3 hrs by alphaLISA analysis relative to amyloid beta40 level; type: functional, organism-based
[8] = species on record: Rattus norvegicus; assay: Toxicity in rat assessed as decrease in thymus size at highest tolerable dose; type: organism-based; settings: in vivo
[9] = species on record: Rattus norvegicus; assay: Toxicity in rat assessed as decrease in body weight at highest tolerable dose; type: organism-based; settings: in vivo
[10] = Permeability from apical to basolateral side of human Caco2 cells; type: ADME, cell-based; settings: Caco-2, read-out: permeability
[11] = tested on: Rattus norvegicus; assay: Antialzheimer activity in CD rat assessed as reduction in amyloid beta42 level in CSF at 10 mg/kg, po after 3 hrs by alphaLISA analysis; type: functional; design: scale not given: the % may be the effect or the level left
[12] = species on record: Rattus norvegicus; assay: Toxicity in rat assessed as effect on adipsin expression in jejunum at highest tolerable dose; type: organism-based; settings: in vivo
[13] = tested on: Rattus norvegicus; assay: Antialzheimer activity in CD rat assessed as reduction in amyloid beta40 level in CSF at 10 mg/kg, po after 3 hrs by alphaLISA analysis; type: functional; design: scale not given: the % may be the effect or the level left
[14] = tested on: Rattus norvegicus; assay: Antialzheimer activity in po dosed CD rat assessed as reduction in amyloid beta42 level in plasma after 3 hrs by alphaLISA analysis relative to amyloid beta40 level; type: functional, organism-based
[15] = tested on: Rattus norvegicus; assay: Antialzheimer activity in CD rat assessed as reduction in amyloid beta40 level in plasma at 10 mg/kg, po after 3 hrs by alphaLISA analysis; type: functional; design: scale not given: the % may be the effect or the level left
[16] = tested on: Rattus norvegicus; assay: Antialzheimer activity in po dosed CD rat assessed as reduction in amyloid beta42 level in cortex after 3 hrs by alphaLISA analysis relative to total amyloid beta level; type: functional, organism-based
[17] = biological target: Gamma-secretase; assay: Modulation of gamma-secretase-mediated notch signaling in HEK293 cells transfected with human APP Swedish and London mutation and Notch1 with truncated extracellular EGF repeat domain assessed as production of notch intracellular domain by MSD-based sandwich immunoassay; type: cell-based
[18] = Cmax in dog at 10 mg/kg, po; type: ADME, organism-based, Canis lupus familiaris; design: dose 10 mg/kg, route oral; settings: in vivo
[19] = species on record: Rattus norvegicus; assay: Toxicity in rat assessed as effect on HES-1 expression in jejunum at highest tolerable dose; type: organism-based; settings: in vivo
[20] = Oral bioavailability in monkey at 10 mg/kg; type: ADME, organism-based, Macaca mulatta; settings: rhesus monkey, in vivo
[21] = tested on: Rattus norvegicus; assay: Antialzheimer activity in CD rat assessed as reduction in amyloid beta42 level in plasma at 10 mg/kg, po after 3 hrs by alphaLISA analysis; type: functional; design: scale not given: the % may be the effect or the level left
[22] = tested on: Rattus norvegicus; assay: Antialzheimer activity in po dosed CD rat assessed as reduction in amyloid beta42 level in plasma after 3 hrs by alphaLISA analysis relative to total amyloid beta level; type: functional, organism-based
[23] = Volume of distribution at steady state in dog at 3 mg/kg, iv; type: ADME, organism-based, Canis lupus familiaris; design: dose 3 mg/kg, route intravenous; settings: in vivo, read-out: Vdss
[24] = Clearance in rat at 3 mg/kg, iv; type: ADME, organism-based; design: dose 3 mg/kg, route intravenous; settings: in vivo
[25] = Cmax in monkey at 10 mg/kg, po; type: ADME, organism-based, Macaca mulatta; design: dose 10 mg/kg, route oral; settings: rhesus monkey, in vivo
[26] = Half life in rat at 3 mg/kg, iv; type: ADME, organism-based; design: dose 3 mg/kg, route intravenous; settings: in vivo
[27] = tested on: Rattus norvegicus; assay: Antialzheimer activity in CD rat assessed as reduction in amyloid beta42 level in cortex administered as po for 6 days by alphaLISA analysis relative to total amyloid beta level; type: functional, organism-based
[28] = Clearance in dog at 3 mg/kg, iv; type: ADME, organism-based, Canis lupus familiaris; design: dose 3 mg/kg, route intravenous; settings: in vivo
[29] = Ratio of drug level in brain to plasma in CD rat at 10 mg/kg, po after 3 hrs; type: ADME, organism-based; design: dose 10 mg/kg, route oral; settings: read-out: BPR
[30] = tested on: Rattus norvegicus; assay: Antialzheimer activity in CD rat assessed as reduction in amyloid beta42 level in CSF administered as po for 6 days by alphaLISA analysis relative to total amyloid beta level; type: functional, organism-based
[31] = AUC in rat at 10 mg/kg, po; type: ADME, organism-based, Plasma; design: dose 10 mg/kg, route oral; settings: plasma
[32] = AUC in dog at 10 mg/kg, po; type: ADME, organism-based, Canis lupus familiaris, Plasma; design: dose 10 mg/kg, route oral; settings: plasma
[33] = species on record: Rattus norvegicus; assay: Toxicity in rat assessed as production of goblet cell meta/hyperplasia in ileum at highest tolerable dose; type: organism-based; settings: in vivo
[34] = Clearance in monkey at 3 mg/kg, iv; type: ADME, organism-based, Macaca mulatta; design: dose 3 mg/kg, route intravenous; settings: rhesus monkey, in vivo
[35] = Cmax in rat at 10 mg/kg, po; type: ADME, organism-based; design: dose 10 mg/kg, route oral; settings: in vivo
[36] = biological target: Gamma-secretase; assay: Modulation of gamma-secretase-mediated cleavage of human APP Swedish and London mutation expressed in HEK293 cells assessed as reduction of total amyloid beta level after 5 hrs by sandwich immunoassay; type: cell-based
[37] = tested on: Rattus norvegicus; assay: Antialzheimer activity in CD rat assessed as reduction in amyloid beta42 level in plasma administered as po for 6 days by alphaLISA analysis relative to total amyloid beta level; type: functional, organism-based
[38] = tested on: Rattus norvegicus; assay: Antialzheimer activity in CD rat assessed as reduction in total amyloid beta level in CSF at 10 mg/kg, po after 3 hrs by alphaLISA analysis; type: functional; design: scale not given: the % may be the effect or the level left
[39] = Volume of distribution at steady state in monkey at 3 mg/kg, iv; type: ADME, organism-based, Macaca mulatta; design: dose 3 mg/kg, route intravenous; settings: rhesus monkey, in vivo, read-out: Vdss
[40] = Half life in monkey at 3 mg/kg, iv; type: ADME, organism-based, Macaca mulatta; design: dose 3 mg/kg, route intravenous; settings: rhesus monkey, in vivo
[41] = tested on: Rattus norvegicus; assay: Antialzheimer activity in CD rat assessed as reduction in amyloid beta42 level in plasma administered as po for 6 days by alphaLISA analysis relative to total amyloid beta40 level; type: functional, organism-based
[42] = Volume of distribution at steady state in rat at 3 mg/kg, iv; type: ADME, organism-based; design: dose 3 mg/kg, route intravenous; settings: in vivo, read-out: Vdss
[43] = tested on: Rattus norvegicus; assay: Antialzheimer activity in po dosed CD rat assessed as reduction in amyloid beta42 level in CSF after 3 hrs by alphaLISA analysis relative to amyloid beta40 level; type: functional, organism-based
[44] = tested on: Rattus norvegicus; assay: Antialzheimer activity in CD rat assessed as reduction in amyloid beta42 level in cortex administered as po for 6 days by alphaLISA analysis relative to total amyloid beta40 level; type: functional, organism-based
[45] = tested on: Rattus norvegicus; assay: Antialzheimer activity in CD rat assessed as reduction in amyloid beta42 level in cortex at 10 mg/kg, po after 3 hrs by alphaLISA analysis; type: functional; design: scale not given: the % may be the effect or the level left
[46] = Oral bioavailability in dog at 10 mg/kg; type: ADME, organism-based, Canis lupus familiaris; settings: in vivo
[47] = Half life in dog at 3 mg/kg, iv; type: ADME, organism-based, Canis lupus familiaris; design: dose 3 mg/kg, route intravenous; settings: in vivo
[48] = Plasma concentration in CD rat at 10 mg/kg, po after 3 hrs; type: ADME, organism-based; design: dose 10 mg/kg, route oral
[49] = species on record: Canis familiaris; assay: Cardiotoxicity in dog assessed as effect on electrocardiographic QTc interval at compound concentration required for pharmacological effect; type: toxicity, organism-based, Canis lupus familiaris; settings: in vivo
[50] = tested on: Rattus norvegicus; assay: Antialzheimer activity in po dosed CD rat assessed as reduction in amyloid beta42 level in CSF after 3 hrs by alphaLISA analysis relative to total amyloid beta level; type: functional, organism-based
[51] = tested on: Rattus norvegicus; assay: Antialzheimer activity in CD rat assessed as reduction in total amyloid beta level in plasma at 10 mg/kg, po after 3 hrs by alphaLISA analysis; type: functional; design: scale not given: the % may be the effect or the level left
[52] = Oral bioavailability in rat at 10 mg/kg; type: ADME, organism-based; settings: in vivo
[53] = tested on: Rattus norvegicus; assay: Antialzheimer activity in CD rat assessed as reduction in amyloid beta40 level in cortex at 10 mg/kg, po after 3 hrs by alphaLISA analysis; type: functional; design: scale not given: the % may be the effect or the level left
[54] = tested on: Rattus norvegicus; assay: Antialzheimer activity in CD rat assessed as reduction in amyloid beta42 level in CSF administered as po for 6 days by alphaLISA analysis relative to total amyloid beta40 level; type: functional, organism-based
[55] = AUC in monkey at 10 mg/kg, po; type: ADME, organism-based, Macaca mulatta; design: dose 10 mg/kg, route oral; settings: rhesus monkey, plasma

solubility [1]: > 100 mM | logD [2]: 5.29
SMILES: COc1cc(/C=C2\CCCN3C2=NOC[C@@H]3c2cc(F)c(F)c(F)c2)ccc1-n1cnc(C)c1.Cl

Stability [3]: Stable | IC50 [4]: 187 nM | Stability [5]: Unstable | IC50 [6]: 2000 nM
SMILES: COCCCN1C(/C=C/c2ccc(-n3cnc(C)c3)c(OC)c2)=NOC1(C)c1ccc(F)cc1 (racemic)

Papp A→B [10]: 30.2 ×10⁻⁶ cm/s | IC50 [17]: > 50000 nM | Cmax [18]: 4 µM | bioavailability [20]: 48% | IC50 [4]: 29 nM | Vd [23]: 0.4 L/kg | clearance [24]: 6.1 mL/min/kg | Cmax [25]: 8.8 µM | half-life [26]: 3.4 h | clearance [28]: 5 mL/min/kg | Kp at 3 h [29]: 0.15 | AUC [31]: 61 µM·h | AUC [32]: 26 µM·h | clearance [34]: 6 mL/min/kg | Cmax [35]: 7.5 µM | IC50 [36]: 14100 nM | Vd [39]: 1.4 L/kg | half-life [40]: 3 h | Vd [42]: 1.6 L/kg | IC50 [6]: 170 nM | bioavailability [46]: 38% | half-life [47]: 1.4 h | concentration at 3 h [48]: 3.6 µM | bioavailability [52]: 98% | AUC [55]: 30 µM·h
SMILES: COc1cc(/C=C2\CCCN3C2=NO[C@]3(CO)c2ccc(F)cc2)ccc1-n1cnc(C)c1
Activity [7]: Dose-dependent effect | Activity [8]: Non-toxic | Activity [9]: Non-toxic | Activity [11]: 66% | Activity [12]: Non-toxic | Activity [13]: 104% | Activity [14]: Dose-dependent effect | Activity [15]: 44% | Activity [16]: Dose-dependent effect | Activity [19]: Non-toxic | Activity [21]: 41% | Activity [22]: Dose-dependent effect | Activity [27]: Dose-dependent effect | Activity [30]: Dose-dependent effect | Activity [33]: Non-toxic | Activity [37]: Dose-dependent effect | Activity [38]: 120% | Activity [41]: Dose-dependent effect | Activity [43]: Dose-dependent effect | Activity [44]: Dose-dependent effect | Activity [45]: 37% | Activity [49]: Non-toxic | Activity [50]: Dose-dependent effect | Activity [51]: 77% | Activity [53]: 77% | Activity [54]: Dose-dependent effect

Reference: ChEMBL document CHEMBL1949526, “Cyclic hydroxyamidines as amide isosteres: discovery of oxadiazolines and oxadiazines as potent and highly efficacious γ-secretase modulators in vivo” (J Med Chem, 2012)
